Reference: patent US20240050447A1 (Propella Therapeutics, Inc., priority 2020, published 2024)
Values joined by “and” are separate entries in the source; they are usually repeats but may differ in a detail not shown here. Identical values can stand only once. Like-named read-outs stand apart in the source and are kept apart here.

Key:
[1] = in vivo; conditions: male, cynomolgus monkey, plasma
[2] = PK of single IM abiraterone decanoate (and oral abiraterone acetate) in chemically castrated monkeys (Example 10); conditions: abiraterone in plasma
[3] = in vivo; conditions: Beagle, dog; for half-life: iv
Experimental: Nominal dose values and sampling times were used for calculations. For the purpose of PK calculations, any concentration reported as “BLQ” was set equal to zero.
Cmax and the corresponding Tmax values were determined by direct assessment of the concentration versus time data. All AUC calculations were performed using the linear trapezoidal rule.
As data permitted, the terminal elimination rate constant (lambda z, λz) was calculated.
To optimize the reliability of the identified terminal phase (λz), where possible, the data points used to define the λz were manually selected.
The AUCINF value was calculated as: AUClast+(Clast/λz). CL/F was calculated as: Dose per dosing interval/(AUCINF) and Vz/F was calculated as: Dose per dosing interval/(AUCINF*λz). Terminal t1/2 was calculated as: ln(2)/λz.
Mean plasma concentration versus time data are presented with standard deviation (SD) and percent coefficient of variation (CV %) and reported to three significant figures. PK parameter values are presented with mean, SD, and CV %. Individual Tmax values were reported to two significant figures, while all other values and descriptive statistics are reported to three significant figures.

[4] = in vivo; conditions: male, rat, plasma
[5] = in vivo; conditions: male, beagle, dog, plasma; for AUC(0-inf): dogs
[6] = dogs (N=3); Group 2: IM 77 mg/kg abiraterone isocaproate, 158 mg/ml in 90% corn oil/10% benzyl alcohol; plasma analyte = label; mean
[7] = dog, in vivo
[8] = male, rat, in vivo, im
Experimental: (§1) Several formulations were considered in the initial rat study.
(§2) The above formulations were administered to either rats or dogs as an IV injection or as IM injections to the hind leg(s) of each animal.

[9] = human
Text: (§3) CL and Vss in man were predicted from CL and Vss in animals by an allometric approach. Vss=a·W^x where a is the intercept, W is bodyweight and x is the allometric exponent; then, log Vss=x·log W+log a (derived from a log-log plot of body weight versus Vss in the 3 species). […] The rate and extent of input was derived by deconvolution.

[10] = in vivo; conditions: dog, plasma, intramuscular
Text: (§4) Weighting was included, dependent on the pattern of residuals (residual Y versus predicted concentration or time) and precision of the estimated parameters. The appropriate model was selected based on: (i) visual inspection of the model fit to the data (ii) the lowest value of Akaike Information Criterion (AIC) and (iii) precision of the estimated parameters (CV). Systemic clearance (CL) and apparent volume of distribution (Vss) were derived from the exponential functions.
(§5) Deconvolution: The rate and extent of input from an intramuscular administration was simulated by deconvolution using WinNonlin Phoenix Version 8.2. Deconvolution is based on linear systems analysis and is defined by the convolution integral: G(t)=R(t)*H(t). G(t) is the measured plasma concentration profile after intramuscular dosing, H(t) is represented by the exponential function described in Section 3.2 and R(t), the rate of input from the IM depot over time, is derived by deconvolution of the above expression. The slope of the input rate versus time generates the input rate constant (Koi). Integration of input rate versus time generates the cumulative input function and an estimate of absolute bioavailability.

[11] = Plasma PK in rats after IM injection of abiraterone or abiraterone acetate formulations (Example 5A); conditions: male, rat, group mean
Experimental: as §1, §2

[12] = in vivo; conditions: rat, plasma, intramuscular, 90 mg/kg
Text: as §4, §5

[13] = in vivo; conditions: monkey, plasma, intramuscular, 90 mg/kg
Text: as §4, §5

[14] = PK modelling and deconvolution of abiraterone plasma profiles, rats (Example 7D)
Text: as §4, §5

[15] = PK modelling and deconvolution of abiraterone plasma profiles, dogs (Example 7D)
Text: as §4, §5

[16] = Allometric scaling and prediction of plasma profile of abiraterone in man (Example 7D)
Text: as §3

[17] = PK modelling and deconvolution of abiraterone plasma profiles, monkeys (Example 7D)
Text: as §4, §5

[18] = single IM 10 mg/kg, Geometric Mean (N=3)
[19] = single IM 10 mg/kg, Median (N=3)
[20] = single IM 10 mg/kg, individual animals
[21] = single IM 30 mg/kg, Geometric Mean (N=3)
[22] = single IM 30 mg/kg, Median (N=3)
[23] = single IM 30 mg/kg, individual animals
[24] = single IM 100 mg/kg, Mean (N=3)
[25] = single IM 100 mg/kg, Median (N=3)
[26] = single IM 100 mg/kg, individual animals
[27] = Group 3: IM abiraterone suspension in castor oil (62.5 mg/ml)
[28] = Group 4: IM abiraterone suspension, sodium phosphate buffer, 0.1% Tween (62.5 mg/ml)

With `CCCCCCCCCC(=O)O[C@H]1CC[C@@]2(C)C(=CC[C@@H]3[C@@H]2CC[C@]2(C)C(c4cccnc4)=CC[C@@H]32)C1` [Abiraterone Decanoate, Abiraterone decanoate] the half-life ([1]; im, 90 mg/kg) was 240 h, the half-life ([1]; iv, […]) was 2.27 h and the AUC0-t [2, 18] was 196 ng·days/mL. The “AUC0-∞” value [2, 18] was 209 ng·days/mL, the AUC0-t ([2]; single IM 10 mg/kg, Max (N=3)) was 225 ng·days/mL and the “AUC0-∞” value ([2]; single IM 10 mg/kg, Max (N=3)) was 236 ng·days/mL. For the same compound, the AUC0-t ([2]; single IM 10 mg/kg, Mean (N=3)) was 198 ng·days/mL, the “AUC0-∞” value ([2]; single IM 10 mg/kg, Mean (N=3)) was 212 ng·days/mL and the AUC0-t [2, 19] was 212 ng·days/mL. For the same compound, the “AUC0-∞” value [2, 19] was 235 ng·days/mL, the AUC0-t ([2]; single IM 10 mg/kg, Min (N=3)) was 157 ng·days/mL and the “AUC0-∞” value ([2]; single IM 10 mg/kg, Min (N=3)) was 166 ng·days/mL. For the same compound, the AUC0-t [2, 20] was 225 ng·days/mL and 157 ng·days/mL and 212 ng·days/mL, the “AUC0-∞” value [2, 20] was 235 ng·days/mL and 166 ng·days/mL and 236 ng·days/mL and the AUC0-t [2, 21] was 330 ng·days/mL. The “AUC0-∞” value [2, 21] was 347 ng·days/mL, the AUC0-t ([2]; single IM 30 mg/kg, Max (N=3)) was 449 ng·days/mL and the “AUC0-∞” value ([2]; single IM 30 mg/kg, Max (N=3)) was 492 ng·days/mL. For the same compound, the AUC0-t ([2]; single IM 30 mg/kg, Mean (N=3)) was 338 ng·days/mL, the “AUC0-∞” value ([2]; single IM 30 mg/kg, Mean (N=3)) was 358 ng·days/mL and the AUC0-t [2, 22] was 285 ng·days/mL. The “AUC0-∞” value [2, 22] was 293 ng·days/mL, the AUC0-t ([2]; single IM 30 mg/kg, Min (N=3)) was 281 ng·days/mL and the “AUC0-∞” value ([2]; single IM 30 mg/kg, Min (N=3)) was 290 ng·days/mL. The AUC0-t [2, 23] was 281 ng·days/mL and 285 ng·days/mL and 449 ng·days/mL, the “AUC0-∞” value [2, 23] was 293 ng·days/mL and 290 ng·days/mL and 492 ng·days/mL and the AUC0-t ([2]; single IM 100 mg/kg, Max (N=3)) was 1760 ng·days/mL. For the same compound, the “AUC0-∞” value ([2]; single IM 100 mg/kg, Max (N=3)) was 1770 ng·days/mL, the AUC0-t [2, 24] was 1410 ng·days/mL and the “AUC0-∞” value [2, 24] was 1430 ng·days/mL. For the same compound, the AUC0-t [2, 25] was 1270 ng·days/mL, the “AUC0-∞” value [2, 25] was 1330 ng·days/mL and the AUC0-t ([2]; single IM 100 mg/kg, Min (N=3)) was 1200 ng·days/mL. The “AUC0-∞” value ([2]; single IM 100 mg/kg, Min (N=3)) was 1200 ng·days/mL, the AUC0-t [2, 26] was 1270 ng·days/mL and 1200 ng·days/mL and 1760 ng·days/mL and the “AUC0-∞” value [2, 26] was 1330 ng·days/mL and 1200 ng·days/mL and 1770 ng·days/mL. For the same compound, the Tmax ([3]; im, mean decanoate Tmax, range between the two IM formulations) was 2.64 to 6.24 h, the half-life ([3]; […]) was 0.86 h and the half-life ([4]; im, 90 mg/kg) was 792 h. For the same compound, the half-life ([4]; iv, […]) was 3.2 h, the CL/F ([5]; im, 87 mg/kg) was 207 mL/min/kg and the Vd/F ([5]; im, 87 mg/kg) was 2850 L/kg. The half-life ([5]; im, 87 mg/kg) was 161 h.
Work on `CC(C)CCC(=O)O[C@H]1CC[C@@]2(C)C(=CC[C@@H]3[C@@H]2CC[C@]2(C)C(c4cccnc4)=CC[C@@H]32)C1` [Abiraterone Isocaproate, Abiraterone isocaproate] yielded a Cmax [6] of 106 ng/mL.
In the case of `CC(=O)O[C@H]1CC[C@@]2(C)C(=CC[C@@H]3[C@@H]2CC[C@]2(C)C(c4cccnc4)=CC[C@@H]32)C1` [Abiraterone acetate, (3β)-17-(3-Pyridyl)androsta-5, acetate], the injection site tolerability [7] is reported as “irritating to the dogs at the injection site”, the AUCINF ([7]; iv, 10 mg/kg) is reported as 5990 ng·h/mL and the AUCINF/Dose ([7]; iv, 10 mg/kg) is reported as 599. For the same compound, the AUClast ([7]; iv, 10 mg/kg) was 5920 ng·h/mL, the AUClast/Dose ([7]; iv, 10 mg/kg) was 592 and the “time out to which blood levels were measurable” value ([7]; male) was 504 h. The Tmax [8] was 8.00 h, the AUClast ([8]; 35 mg/kg) was 934 ng·h/mL and the Cmax ([8]; 35 mg/kg) was 21.6 ng/mL. It also gave a Tmax ([8]; 35 mg/kg) of 39.2 h.
For `C[C@]12CC[C@H](O)CC1=CC[C@@H]1[C@@H]2CC[C@]2(C)C(c3cccnc3)=CC[C@@H]12` [Abiraterone, (3β)-17-(pyridin-3-yl)androsta-5,16-dien-3-ol], the “t1/2 (absorption half-life), predicted in man” value [9] was 325 h, the half-life [10] was 319 h and the Cmax [11, 27] was 13.3 ng/mL. It also gave a Cmax [11, 28] of 1.43 ng/mL, a Tmax [11, 27] of 2.6 h and a Tmax [11, 28] of 1.67 h. For the same compound, the AUCINF [6] was 275 ng·days/mL, the AUClast [6] was 266 ng·days/mL and the t1/2 [6] was 223 h. For the same compound, the bioavailability ([3]; im, absolute bioavailability for abiraterone) was 72%, the AUC(0-inf) ([3]; im, mean abiraterone AUCINF after IM, corrected for dose and time units) was 104 ng·h/mL and the half-life ([3]; 1 mg/kg, mean t1/2) was 2.1 h. It also gave a half-life [12] of 325 h, a half-life [13] of 325 h and an F ([14]; Rats, IM bioavailability of abiraterone from abiraterone decanoate, deconvolution) of 19%. For the same compound, the Vd ([14]; rat, plasma, iv, […]) was 22.3 L/kg, the clearance ([14]; rat, plasma, iv, […]) was 190 mL/min/kg and the F ([15]; Dogs, IM bioavailability of abiraterone from abiraterone decanoate, deconvolution) was 56%. It also gave a Vd ([15]; dog, plasma, iv, […]) of 14.2 L/kg, a clearance ([15]; dog, plasma, iv, […]) of 108 mL/min/kg and an AUC(0-inf) ([5]; im, 60 mg/kg, mean abiraterone AUCINF after IM, corrected for dose and time units, 60 mg/kg IM administration (abiraterone decanoate)) of 70.4 ng·h/mL. For the same compound, the AUC(0-inf) ([5]; im, 60 mg/kg, mean abiraterone AUCINF after IM, corrected for dose and time units, 60 mg/kg IM administration of abiraterone isocaproate) was 114 ng·h/mL, the bioavailability ([5]; im, 77 mg/kg) was 87% and the half-life ([5]; im, 77 mg/kg, t1/2, dogs (N=3), Group 2: IM 77 mg/kg abiraterone isocaproate, 158 mg/ml in 90% corn oil/10% benzyl alcohol, plasma analyte = label, mean) was 223 h. The bioavailability ([5]; im, 87 mg/kg) was 42%, the AUC(0-inf) ([5]; iv, 0.78 mg/kg, mean abiraterone AUCINF after IV, corrected for dose, IV abiraterone isocaproate (0.78 mg/kg as abiraterone)) was 131 ng·h/mL and the “Vss, predicted in man” value ([16]; allometric scaling from rats, dogs and monkeys) was 437 L. For the same compound, the “K01, predicted in man” value ([16]; from deconvolution of animal IM/IV data) was 0.00213 h⁻¹, the “F, predicted in man” value ([16]; value of dogs used) was 56% and the F ([17]; Monkeys, IM bioavailability of abiraterone from abiraterone decanoate, deconvolution) was 14%. It also gave a Vd ([17]; monkey, plasma, iv, […]) of 5.73 L/kg and a clearance ([17]; monkey, plasma, iv, […]) of 43 mL/min/kg.
